These are literature values, as cited in patent US8569273B2, “Ophthalmic formulations of cetirizine and methods of use” (Aciex Therapeutics, Inc., priority 2009, dated 2013).

For the data set the following is noted: ophthalmic antihistamine.

The structures appear in SMILES notation.

Consider `C[C@@H]1CN([C@H]2CC[C@](C#N)(c3ccc(F)cc3)CC2)CC[C@]1(C(=O)O)c1ccccc1` [levocabastine], for which the duration of action was 2 to 4 h. On to `O=C(O)CCCN1CCC(O[C@@H](c2ccc(Cl)cc2)c2ccccn2)CC1` [bepotastine], for which the duration of action is 8 h.
